“Also recorded” adds a separate entry of the source.
Legend:
[1] = tested on: aged (24-month-old) C57BL/6 mice; assay: Activity monitoring wheel test (frailty study); format: in vivo; conditions: 24-month-old mice
Experimental: (§1) The animals were housed with access to voluntary running wheels that wirelessly transmit running data to a computer for analysis. Voluntary running wheel activity levels were measured daily, and body weights were measured every 2 weeks.
The study concluded on Study Day 83. Activity wheel monitoring started on Study Day 1 and ended on Study Day 83 (Phase Day 64). The data was analyzed at the end of the study. […] For the frailty portion of the study, mice were assessed using an activity monitoring wheel which was monitored passively with a computer monitoring system. […]
The activity-monitoring wheel is a running disk that monitors rotations. […] Activity was monitored passively and wirelessly with a computer monitoring system. Running wheel activity levels were monitored daily. […] Mouse activity levels were measured as the number of wheel revolutions per day for each mouse and converted into a daily count of kilometers run using the diameter of the wheel. Within each experimental group, the daily median value for activity was calculated. […] The daily differences between the distances run in each group were calculated and tested for an increasing trend using Kendall's rank correlation tau.

[2] = tested on: aged (24-month-old) C57BL/6 mice; assay: Grid hang test (forearm grip strength); format: in vivo; conditions: after 64 days of treatment, vs vehicle
Experimental: Four 20-gallon plastic buckets were used to suspend a three-by-three-foot metal grid suspended approximately three feet from the ground. The ground just below the grid was padded with soft material. The metal grid was placed on its side so that it was perpendicular to the buckets' surface. […] Once the grid was completely parallel with the horizontal plane (i.e. the floor), the timer was started. The timer was stopped when the mouse fell onto the padded floor and the time to fall was recorded and graphed.
(§2) To determine whether increased wheel activity was accompanied by an increase in muscle strength, near the end of the frailty study the mice were subjected to a grid hang test, which measures forearm grip strength. […] Average latency to fall increased in the BGE-105-treated mice (p=0.04, Mann-Whitney U test) (FIGS. 3B and 3C). Thus, the increase in running activity observed in BGE-105-treated mice were accompanied by improved forearm grip strength.

[3] = tested on: aged (24-month-old) C57BL/6 mice; assay: Tissue wet weight and body weight at end of frailty study; format: in vivo; conditions: vs vehicle
Experimental: as §1, §2

tibialis of aged mice = assay: CTX-induced muscle injury: histology (cross-sectional area, centrally nucleated fibers); format: in vivo
Experimental: Impairment of muscle regeneration can contribute to age-related muscle weakness. This is particularly true in aged individuals who engage in physical activity. Exercise-induced muscle hypertrophy is linked to the capacity of muscle stem cells to be activated and promote regeneration.
Mice were i.p injected with buprenorphine (Centravet, 0.1 mg/kg) 30 minutes before injury and the day after. The day of the injury, mice were anesthetized with isoflurane inhalation and hindlimbs were shaved. Then, 10 μM of cardiotoxin (CTX, Latoxan, #L8102) was injected through two injections of 25 μl into the left tibialis muscle and two injections of 50 μl into the left gastrocnemius muscle, using a 22-gauge needle (Hamilton). Mice were euthanized 3 and 7 days after injury by cervical dislocation, muscles (PBS- and CTX-injected) were cut in two parts, one being snap frozen into liquid nitrogen for total RNA extraction and the other part being embedded into OCT, frozen in isopentane cooled with liquid nitrogen for histological analysis.
Mouse muscle samples were dissected and cryopreserved in OCT frozen in liquid nitrogen cooled isopentane. Samples were then sectioned at 10 μm on a cryostat and post-fixed with 4% Paraformaldehyde (PFA) for 15min at room temperature. Muscle frozen sections (10 μm) were stained by helaun/eosin or immune-labeled for laminin (Abcam) and embryonic myosin. Briefly, sections were blocked 1 h in PBS plus 4% BS(a), 2% goat serum, 0.01% Triton X-100. Sections were then incubated overnight with primary antibodies. After washes in PBS, sections were incubated 1 h with secondary antibodies anti-Ig2b AF 488 (Life Technology). Slides were finally mounted in ProLong Gold antifade Reagent (Molecular probes by Life Technology) with DAPI. Images were captured using a digital camera (Nanozoomer, Hamamatsu) attached to a motorized fluorescence microscope or using Olympus VS120 Virtual Microscopy Slide Scanning System. The area covered by eMHC-positive fibers and degenerated area was determined manually across the entire sections using the VS-ASW FL software measurement tools. The size of myofibers with central nuclei was calculated from laminin/DAPI staining on all fibers of the section and area determination were performed across the entire sections, using an automated image processing algorithm developed internally using the MetaXpress software (Molecular Devices).

25-HMC [4] = assay: Proliferation of immortalized human muscle cells, younger donor; format: cell-based; conditions: for cell proliferation (measured at day 4): younger subject cells
Experimental: (§3) Immortalized human cells from male donors (25-HMC) […] (79-HMC) are grown from the proliferation stage until they become 80% confluent, differentiate, and become myotubes. […] Early proliferation markers (Pax7, Myf5, MyoD, and MyoG were assessed via RT-PCR (FIG. 8D to 8K)

25-HMC [5] = assay: Early proliferation marker expression (RT-PCR), younger donor cells; format: cell-based, human
Experimental: as §3

79-HMC = assay: Early proliferation marker expression (RT-PCR), older donor cells; format: cell-based, human
Experimental: as §3

apelin receptor = assay: Apelin receptor levels after one month of BGE-105 in immobilized aged mice; format: in vivo; conditions: after one month of treatment at 50 mg/kg BID
Excerpt: Tissue samples were lysed using T-PER tissue protein extraction reagent (Thermo Fisher Scientific #78510) containing EDTA and protease/phosphatase inhibitors on the Omni Bead Ruptor 12 Homogenizer. Total protein was extracted then quantified using Pierce™ BCA Protein Assay Kit. Loaded equal amounts of total protein per lane on a 4-12% SDS-PAGE gel and transferred to PVDF membrane. Membranes were blocked and blotted with anti-phospho-AMPKα-Thr172 (Cell Signaling Technology, CST #2535), total-AMPKα (CST #2532), anti-phospho-Akt-SeR^473 (CST #4060), total-Akt (CST #4685), anti-phospho-ERK-1/2-Thr202/Tyr204 of Erk1 and Thr185/Tyr187 of Erk2 (CST #4370), total-ERK-1/2 (CST #9107) or anti-APLNR receptor (abcam, ab214369) antibodies. Band intensities were normalized to loading control anti-β-Actin (CST #3700) or anti-GAPDH (abcam, ab181602) antibodies. Immunoreactive proteins were detected using SuperSignal™ West Femto Substrate (Thermo Fisher Scientific #34095) and quantified by Image Lab™ software (Bio-Rad Laboratories, Inc.).
After 3 weeks of treatment following casting, mice were euthanized 1 hour after the final ZT1 dose, and tissues isolated, weighed, then flash frozen in liquid nitrogen for subsequent western blot analysis.

COc1cccc(OC)c1-n1c(NS(=O)(=O)[C@@H](C)[C@H](C)c2ncc(C)cn2)nnc1-c1cncc(C)c1 [BGE-105, (2S,3R)—N-(4-(2,6-dimethoxyphenyl)-5-(5-methyl-3-pyridinyl)-4H-1,2,4-triazol-3-yl)-3-(5-methyl-2-pyrimidinyl)-2-butanesulfonamide]
voluntary running wheel activity vs age-matched controls ([1]; 275 ug/mL in drinking water ad libitum, 64 days): statistically significant increase in voluntary motor activity; also recorded: significantly more active; also recorded: decreased significantly less | distance run more than vehicle-treated mice at end of experimental period ([1]; 275 ug/mL in drinking water, both experiments, on average): at least 1 km/day | latency to fall in grid hang test (grip strength) [2]: statistically significant improvement in grip strength; also recorded: increase in the latency to fall; also recorded: increased | body weight [3]: the increase was not significant | tissue wet weight, gastrocnemius [3]: trend toward higher tissue wet weight | tissue wet weight, heart [3]: no difference | tissue wet weight, quadriceps [3]: trend toward higher tissue wet weight | tissue wet weight, tibialis anterior (TA) [3]: significantly higher tissue wet weight | amount of centrally nucleated myofibers (CNM) (tibialis of aged mice; 18-months old mice after cardiotoxin, apelin 0.5 μmol/kg/day, BGE-105 200 mg/kg/day): significant increase | central nuclei in regenerating fibers (tibialis of aged mice; aged mice after cardiotoxin, BGE-105 50 or 200 mg/kg/day): promoted accumulation of central nuclei; also recorded: dose-dependent increase in central nucleated fibers | cross-sectional area of the tibialis (tibialis of aged mice; aged mice, 3 and 7 days post cardiotoxin, apelin, BGE-105 50 and 200 mg/kg/d): positive effect; also recorded: significant increase in cross sectional area | cell proliferation, short-term treatment (25-HMC [4]; young donor cells, day 0 to day 4 post seeding): significant increase of cell proliferation | cell proliferation (measured at day 4) (25-HMC [4]; 5 nM): increase | cell proliferation (measured at day 4) (25-HMC [4]; 50 nM): significant increase in cell proliferation | expression of muscle cell differentiation markers Pax7 and MyoD (25-HMC [5]; young donor cells): increased the expression | MyoD expression (25-HMC [5]; younger cells, 5 nM): very significant increase | Myf5 expression (25-HMC [5]; younger cells, 5 and 50 nM): equal to apelin treatment | Pax7 expression (25-HMC [5]; younger cells, 5 and 50 nM): recapitulated the levels of apelin | MyoG expression (FIG. 8F) (25-HMC [5]; younger cells, any amount of BGE-105, relative to control): no change | expression of muscle cell differentiation markers Pax7, Myf5, MyoD, and MyoG (79-HMC; aged-donor cells): increased the expression | Pax7 levels (79-HMC; older cells, 0.05, 0.5, 5, 50 nM, vs control): significant increase at all treatment doses | MyoG levels (79-HMC; older cells, all treatment levels): increase at all treatment levels | Myf5 expression (79-HMC; older donor cells, 5 and 50 nM): equal to apelin treatment | MyoD levels (79-HMC; older donor cells, all treatment levels): increase at all treatment levels | apelin receptor levels (apelin receptor): noticeable but non-significant drop

Source: patent US20240252493A1, “Apelin Receptor Modulators for Treating Age-Related Muscle Conditions” (BIOAGE LABS, INC., priority 2021, published 2024)
